Results: US8222487B2, “Application of ERF genes from Bupleurum kaoi” (National Tsing Hua University, priority 2009, dated 2012)

What was measured:
[1] = system: cell suspension cultures of Medicago truncatula; conditions: 5 μM MeJA for 2 h; cited from earlier work
[2] = system: B. kaoi adventitious roots; assay: Measurement of malondialdehyde (MDA) in adventitious roots; assay type: cell-based, Bupleurum kaoi
Experimental: (§1) To test whether MeJA caused oxidative stress, the H2O2 level was measured as described below. H2O2 was extracted by homogenizing 0.3 to 0.5 g of adventitious roots with 3 ml phosphate buffer (50 mM, pH6.8) and centrifuged at 6000×g for 25 min. A 2 ml extract was mixed with 1 ml 0.1% titanium sulfate in 20% H2SO4 (v/v), and centrifuged at 6000×g for 15 min. The optical density of the supernatant was measured at 410 nm using an equal volume of phosphate buffer as a blank. […] The MDA level was colorimetrically measured as described below. MDA was extracted by homogenizing 0.3 to 0.5 g adventitious roots with 2 ml 5% trichloroacetic acid, and centrifuged at 10,000×g for 5 min at 20° C. A mixture of 1 ml supernatant with 4 ml 0.5% thiobarbituric acid in 20% trichloroacetic acid was heated in a 95° C. water bath for 30 min and centrifuged for 10 min at 2000×g to remove haziness. Optical density of the supernatant was measured at 532 nm and 600 nm using 1 ml 5% trichloroacetic acid to replace supernatant as a blank.

[3] = system: B. kaoi adventitious roots; assay: Measurement of H2O2 in adventitious roots; assay type: cell-based, Bupleurum kaoi; conditions: 500 μM MeJA; during 5 weeks culture
Experimental: as §1

[4] = system: B. kaoi adventitious roots; assay: Effect of MeJA on saikosaponin production in adventitious roots (HPLC); assay type: cell-based, Bupleurum kaoi; conditions: for Increase of total saikosaponins: 2 weeks after treatment, P<0.05; for Saikosaponin: measured 14 days after MeJA treatment, mean ± S.E., n=3
Experimental: Adventitious root cultures were induced from the roots of germ-free seedlings of B. kaoi and were subcultured every 6 weeks by adding 0.2 g roots to a 125 ml flask containing 50 ml of B5 liquid medium supplemented with 2 mg 1^−1 NAA. Cultures were shaken using a rotary shaker at 100 rpm at 25° C. in the dark. To quantify the effect of MeJA on saikosaponin level, adventitious roots were treated with 500 and 1000 μM MeJA 2 weeks after subculture. Total saikosaponin was measured 2 weeks after MeJA treatment. To monitor expression of MeJA-responsive genes, the nutrient medium was refreshed 4 weeks after subculture and MeJA (500 μM) was applied 2 weeks after refreshment. Roots were harvested at 13 time points (5 min; 1, 2, 8, 24 hours; 2, 4, 6, 8 days; 2, 3, 4, 5 weeks) after the addition of the MeJA. The saikosaponins level was measured according to Li et al. (Li X. Q. et al., Biol. Pharm. Bull. 28 (2005) 1736-1742) with some modifications. Freeze-dried adventitious roots were ground into a fine powder and extracted with 70% methanol at a ratio of 10:1 (v/w) at 25° C. with gentle shaking for 24 h. After centrifugation at 10,000×g for 10 min, the supernatant was filtered through a 0.45 μm filter. The amount of total saikosaponins (saikosaponin-a, saikosaponin-c, and saikosaponin-d) in each extract was quantified using a high performance liquid chromatograph (HPLC) (Waters 600 controller autoinjector) with a C18 Inertsil 5 ODS-2 column (4.6 mm×250 mm) and a mobile phase of 45% acetonitrile/55% H2O. The flow rate was 1 ml min^−1, the injection volume was 20 μl, and the eluent was monitored at 210 nm using a Waters 996 photodiode array detector.

[5] = system: B. kaoi adventitious roots; assay: cDNA microarray of MeJA-responsive genes in adventitious roots; assay type: cell-based, Bupleurum kaoi; conditions: 500 μM MeJA; microarray analysis
Experimental: Adventitious root cultures were induced from the roots of germ-free seedlings of B. kaoi and were subcultured every 6 weeks by adding 0.2 g roots to a 125 ml flask containing 50 ml of B5 liquid medium supplemented with 2 mg 1^−1 NAA. Cultures were shaken using a rotary shaker at 100 rpm at 25° C. in the dark. To quantify the effect of MeJA on saikosaponin level, adventitious roots were treated with 500 and 1000 μM MeJA 2 weeks after subculture. Total saikosaponin was measured 2 weeks after MeJA treatment. To monitor expression of MeJA-responsive genes, the nutrient medium was refreshed 4 weeks after subculture and MeJA (500 μM) was applied 2 weeks after refreshment. Roots were harvested at 13 time points (5 min; 1, 2, 8, 24 hours; 2, 4, 6, 8 days; 2, 3, 4, 5 weeks) after the addition of the MeJA. […]
The DNA microarray data were imported into GeneSpring 7.2 (Silicon Genetics) for further analyses. […] The coefficient of variation was calculated by dividing the standard deviation by the mean. Net intensities of both channels were calculated by subtraction of the median fluorescent intensity of the background from the mean fluorescent intensity of each feature. […] Fold change was calculated for each gene by dividing the average intensity of MeJA-treated samples by the average intensity of the corresponding control samples. […]

CC/C=C\CC1C(=O)CCC1CC(=O)OC (stereo not drawn) [MeJA, Methyl jasmonate]
PAL transcripts induction [1]: 3 fold | Increase in the MDA level ([2]; 500 μM MeJA, at 2 days): 1.4 fold | Accumulation of MDA ([2]; all treatments during 5 weeks): < 47 nmol/g | H2O2 levels in the adventitious roots [3]: did not significantly change | Increase of total saikosaponins ([4]; 500 μM MeJA): 38 fold | Increase of total saikosaponins ([4]; 1000 μM MeJA): 21 fold | Saikosaponin ([4]; MeJA 500 μM): 63.60 ± 20.46 μg g^−1 of dry wt | Saikosaponin ([4]; MeJA 1000 μM): 39.73 ± 13.25 μg g^−1 of dry wt | Two BkP450 genes (AM421810, AM421812) increase [5]: 2 fold
